Experimental data: ChEMBL document CHEMBL1649226, “Species identification and antifungal susceptibility patterns of species belonging to Aspergillus section Nigri” (2009)
Starred links: 1 amine or outer side, 2 acyl side, 3 side chain; linkers in the order of their positions; H or OH if unused. Positions of bridges follow the written chain, without caps; N, C: chain ends. Non-standard residues stand in square brackets, D forms with d. Residues, ends and D or L forms follow the SMILES beside them. *: point of attachment. hTyr(3S-OH,4S-OH,3'-OSO3H) = N[C@H](C(=O)O)[C@H](O)[C@@H](O)c1ccc(O)c(OS(=O)(=O)O)c1; Orn(4R-OH,5R-OH) = O=C([C@H](C[C@@H](O)[C@@H](O)N[*:3])N[*:1])[*:2]; Pro(3S-OH,4S-Me) = C[C@H]1CN[C@H](C(=O)O)[C@H]1O; X1 = CCCCCOc1ccc(-c2cc(-c3ccc(C(=O)*)cc3)no2)cc1; Gln(3R-OH) = NC(=O)C[C@@H](O)[C@H](N)C(=O)O; Hyp = O=C(O)[C@@H]1C[C@@H](O)CN1

Assays:
Assay type in all cases: functional
Aspergillus niger [1] = test: Antifungal activity against Aspergillus niger isolate CM-4262 obtained from Ophthalmic assessed as inhibition of hyphal growth after 48 hrs; conditions: isolate CM-4262, 48 h, read-out: MEC
Aspergillus tubingensis [2] = test: Antifungal activity against Aspergillus tubingensis isolate CM-4003 assessed as inhibition of hyphal growth after 48 hrs; conditions: isolate CM-4003, 48 h, read-out: MEC
Aspergillus tubingensis [3] = test: Antifungal activity against Aspergillus tubingensis isolate CM-4001 assessed as inhibition of hyphal growth after 48 hrs; conditions: isolate CM-4001, 48 h, read-out: MEC
Aspergillus foetidus [4] = test: Antifungal activity against Aspergillus foetidus isolate CM-4995 obtained from prosthesis assessed as inhibition of hyphal growth after 48 hrs; conditions: isolate CM-4995, 48 h, read-out: MEC
Aspergillus tubingensis [5] = test: Antifungal activity against Aspergillus tubingensis isolate CM-4352 obtained from respiratory tract infection of patient assessed as inhibition of hyphal growth after 48 hrs; conditions: isolate CM-4352, 48 h, read-out: MEC
Aspergillus tubingensis [6] = test: Antifungal activity against Aspergillus tubingensis isolate CM-3585 assessed as inhibition of hyphal growth after 48 hrs; conditions: isolate CM-3585, 48 h, read-out: MEC
Aspergillus tubingensis [7] = test: Antifungal activity against Aspergillus tubingensis isolate CM-4897 obtained from blood culture assessed as inhibition of hyphal growth after 48 hrs; conditions: isolate CM-4897, 48 h, read-out: MEC
Aspergillus niger [8] = test: Antifungal activity against Aspergillus niger isolate CM-3586 obtained from catheter of patient assessed as inhibition of hyphal growth after 48 hrs; conditions: isolate CM-3586, 48 h, read-out: MEC
Aspergillus foetidus [9] = test: Antifungal activity against Aspergillus foetidus isolate CM-4002 assessed as inhibition of hyphal growth after 48 hrs; conditions: isolate CM-4002, 48 h, read-out: MEC
Aspergillus tubingensis [10] = test: Antifungal activity against Aspergillus tubingensis isolate CM-4296 obtained from respiratory tract infection of patient assessed as inhibition of hyphal growth after 48 hrs; conditions: isolate CM-4296, 48 h, read-out: MEC
Aspergillus tubingensis [11] = test: Antifungal activity against Aspergillus tubingensis isolate CM-4264 obtained from blood culture assessed as inhibition of hyphal growth after 48 hrs; conditions: isolate CM-4264, 48 h, read-out: MEC
Aspergillus foetidus [12] = test: Antifungal activity against Aspergillus foetidus isolate CM-5264 obtained from respiratory tract infection of patient assessed as inhibition of hyphal growth after 48 hrs; conditions: isolate CM-5264, 48 h, read-out: MEC
Aspergillus tubingensis [13] = test: Antifungal activity against Aspergillus tubingensis isolate CM-3125 obtained from respiratory tract infection of patient assessed as inhibition of hyphal growth after 48 hrs; conditions: isolate CM-3125, 48 h, read-out: MEC
Aspergillus niger [14] = test: Antifungal activity against Aspergillus niger isolate CM-4316 obtained from respiratory tract infection of patient assessed as inhibition of hyphal growth after 48 hrs; conditions: isolate CM-4316, 48 h, read-out: MEC
Aspergillus tubingensis [15] = test: Antifungal activity against Aspergillus tubingensis isolate CM-4688 obtained from respiratory tract infection of patient assessed as inhibition of hyphal growth after 48 hrs; conditions: isolate CM-4688, 48 h, read-out: MEC
Aspergillus tubingensis [16] = test: Antifungal activity against Aspergillus tubingensis isolate CM-3177 obtained from respiratory tract infection of patient assessed as inhibition of hyphal growth after 48 hrs; conditions: isolate CM-3177, 48 h, read-out: MEC
Aspergillus niger [17] = test: Antifungal activity against Aspergillus niger isolate CM-3506 obtained from respiratory tract infection of patient assessed as inhibition of hyphal growth after 48 hrs; conditions: isolate CM-3506, 48 h, read-out: MEC
Aspergillus tubingensis [18] = test: Antifungal activity against Aspergillus tubingensis isolate CM-3123 obtained from respiratory tract infection of patient assessed as inhibition of hyphal growth after 48 hrs; conditions: isolate CM-3123, 48 h, read-out: MEC
Aspergillus tubingensis [19] = test: Antifungal activity against Aspergillus tubingensis isolate CM-4000 by broth dilution method assessed as inhibition of hyphal growth after 48 hrs; conditions: isolate CM-4000, 48 h, read-out: MEC
Aspergillus niger [20] = test: Antifungal activity against Aspergillus niger isolate CM-3672 obtained from cutaneous layer of patient assessed as inhibition of hyphal growth after 48 hrs; conditions: isolate CM-3672, 48 h, read-out: MEC
Aspergillus niger [21] = test: Antifungal activity against Aspergillus niger isolate CM-3641 obtained from respiratory tract infection of patient assessed as inhibition of hyphal growth after 48 hrs; conditions: isolate CM-3641, 48 h, read-out: MEC
Aspergillus niger [22] = test: Antifungal activity against Aspergillus niger isolate CM-4004 obtained from assessed as inhibition of hyphal growth after 48 hrs; conditions: isolate CM-4004, 48 h, read-out: MEC
Aspergillus tubingensis [23] = test: Antifungal activity against Aspergillus tubingensis isolate CM-4899 obtained from respiratory tract infection of patient assessed as inhibition of hyphal growth after 48 hrs; conditions: isolate CM-4899, 48 h, read-out: MEC
Aspergillus tubingensis [24] = test: Antifungal activity against Aspergillus tubingensis isolate CM-3654 obtained from blood culture assessed as inhibition of hyphal growth after 48 hrs; conditions: isolate CM-3654, 48 h, read-out: MEC
Aspergillus tubingensis [25] = test: Antifungal activity against Aspergillus tubingensis isolate CM-3507 obtained from respiratory tract infection of patient assessed as inhibition of hyphal growth after 48 hrs; conditions: isolate CM-3507, 48 h, read-out: MEC
Aspergillus tubingensis [26] = test: Antifungal activity against Aspergillus tubingensis isolate CM-5094 obtained from respiratory tract infection of patient assessed as inhibition of hyphal growth after 48 hrs; conditions: isolate CM-5094, 48 h, read-out: MEC
Aspergillus tubingensis [27] = test: Antifungal activity against Aspergillus tubingensis isolate CM-4005 assessed as inhibition of hyphal growth after 48 hrs; conditions: isolate CM-4005, 48 h, read-out: MEC
Aspergillus niger [28] = test: Antifungal activity against Aspergillus niger isolate CM-3551 obtained from respiratory tract infection of patient assessed as inhibition of hyphal growth after 48 hrs; conditions: isolate CM-3551, 48 h, read-out: MEC
Aspergillus niger [29] = test: Antifungal activity against Aspergillus niger isolate CM-5095 obtained from respiratory tract infection of patient assessed as inhibition of hyphal growth after 48 hrs; conditions: isolate CM-5095, 48 h, read-out: MEC
Aspergillus niger [30] = test: Antifungal activity against Aspergillus niger isolate CM-3257 obtained from respiratory tract infection of patient assessed as inhibition of hyphal growth after 48 hrs; conditions: isolate CM-3257, 48 h, read-out: MEC
Aspergillus niger [31] = test: Antifungal activity against Aspergillus niger isolate CM-4213 obtained from respiratory tract infection of patient assessed as inhibition of hyphal growth after 48 hrs; conditions: isolate CM-4213, 48 h, read-out: MEC
Aspergillus tubingensis [32] = test: Antifungal activity against Aspergillus tubingensis isolate CM-3810 obtained from respiratory tract infection of patient assessed as inhibition of hyphal growth after 48 hrs; conditions: isolate CM-3810, 48 h, read-out: MEC
Aspergillus niger [33] = test: Antifungal activity against Aspergillus niger isolate CM-3236 obtained from respiratory tract infection of patient assessed as inhibition of hyphal growth after 48 hrs; conditions: isolate CM-3236, 48 h, read-out: MEC
Aspergillus niger [34] = test: Antifungal activity against Aspergillus niger isolate CM-3636 obtained from respiratory tract infection of patient assessed as inhibition of hyphal growth after 48 hrs; conditions: isolate CM-3636, 48 h, read-out: MEC

Measured: minimal effective concentration

CC[C@H](C)C[C@H](C)CCCCCCCCC(=O)N[C@H]1C[C@@H](O)[C@@H](NCCN)NC(=O)[C@@H]2[C@@H](O)CCN2C(=O)[C@H]([C@H](O)CCN)NC(=O)[C@H]([C@H](O)[C@@H](O)c2ccc(O)cc2)NC(=O)[C@@H]2C[C@@H](O)CN2C(=O)[C@H]([C@@H](C)O)NC1=O [CASPOFUNGIN]
0.37 µg/mL: Aspergillus tubingensis [6]
0.03 µg/mL: Aspergillus tubingensis [11] | Aspergillus niger [28]
0.19 µg/mL: Aspergillus tubingensis [26]
0.5 µg/mL: Aspergillus niger [21] | Aspergillus tubingensis [27] | Aspergillus tubingensis [32]
0.11 µg/mL: Aspergillus tubingensis [3]
0.06 µg/mL: Aspergillus foetidus [12] | Aspergillus tubingensis [25]
0.15 µg/mL: Aspergillus tubingensis [5] | Aspergillus niger [17] | Aspergillus niger [20]
1 µg/mL: Aspergillus niger [8]
0.25 µg/mL: Aspergillus tubingensis [2] | Aspergillus tubingensis [10] | Aspergillus niger [14] | Aspergillus tubingensis [18] | Aspergillus niger [29] | Aspergillus niger [30] | Aspergillus niger [33] | Aspergillus niger [34]
0.13 µg/mL: Aspergillus niger [1]
0.05 µg/mL: Aspergillus tubingensis [13] | Aspergillus tubingensis [16]
0.14 µg/mL: Aspergillus foetidus [4] | Aspergillus foetidus [9] | Aspergillus tubingensis [24]
0.39 µg/mL: Aspergillus niger [31]
0.1 µg/mL: Aspergillus tubingensis [7] | Aspergillus tubingensis [19] | Aspergillus niger [22] | Aspergillus tubingensis [23]
0.18 µg/mL: Aspergillus tubingensis [15]

CCCCCOc1ccc(-c2cc(-c3ccc(C(=O)N[C@H]4C[C@@H](O)[C@@H](O)NC(=O)[C@@H]5[C@@H](O)[C@@H](C)CN5C(=O)[C@H]([C@H](O)CC(N)=O)NC(=O)[C@H]([C@H](O)[C@@H](O)c5ccc(O)c(OS(=O)(=O)O)c5)NC(=O)[C@@H]5C[C@@H](O)CN5C(=O)[C@H]([C@@H](C)O)NC4=O)cc3)no2)cc1 [MICAFUNGIN] (X1-[Orn(4R-OH,5R-OH)]T[Hyp][hTyr(3S-OH,4S-OH,3'-OSO3H)][Gln(3R-OH)][Pro(3S-OH,4S-Me)]; lactam 1-C)
0.03 µg/mL: Aspergillus niger [1] | Aspergillus tubingensis [2] | Aspergillus tubingensis [3] | Aspergillus foetidus [4] | Aspergillus tubingensis [5] | Aspergillus tubingensis [6] | Aspergillus tubingensis [7] | Aspergillus niger [8] | Aspergillus foetidus [9] | Aspergillus tubingensis [10] | Aspergillus tubingensis [11] | Aspergillus foetidus [12] | Aspergillus tubingensis [13] | Aspergillus niger [14] | Aspergillus tubingensis [15] | Aspergillus tubingensis [16] | Aspergillus niger [17] | Aspergillus tubingensis [18] | Aspergillus tubingensis [19] | Aspergillus niger [20] | Aspergillus niger [21] | Aspergillus niger [22] | Aspergillus tubingensis [24] | Aspergillus tubingensis [25] | Aspergillus tubingensis [26] | Aspergillus tubingensis [27] | Aspergillus niger [28] | Aspergillus niger [29] | Aspergillus niger [30] | Aspergillus niger [31] | Aspergillus tubingensis [32] | Aspergillus niger [33] | Aspergillus niger [34]
0.05 µg/mL: Aspergillus tubingensis [23]
